# Results taken from patent US9586931B2 (Merck Sharp & Dohme Corp., priority 2012, dated 2017).
# Biological target: T1, recombinant human GST-Syk (Homo sapiens, UniProt P43405)
# T1 construct: purchased Carna Biosciences 08-176
# Assay: Homogeneous Time-Resolved Fluorescence (HTRF) assay for the recombinant human Syk enzyme
# Format: biochemical
# Details: recombinant human GST-Syk 5 pM, ATP 25 μM, 10-dose titration 10 μM to 0.508 nM; read-out: rhSYK Activity IC50
# In short: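 Detection used time-resolved fluorescence 30 min after adding a quench mix (40 mM EDTA, 15 mM Tris pH 7.5, 0.01% Tween 20) containing 2 nM Europium anti-pTyr antibody and 70 nM streptavidin-APC. This followed 45 min of room-temperature peptide phosphorylation by recombinant GST-tagged human Syk.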
row,Structure (SMILES),IC50 [nM]
1,"Cc1cc(Nc2nccc(OC(C)C)n2)cc(-c2cn(CC(C)(O)C(C)(C)O)nn2)c1 (stereo not drawn) [Example 21.13, 2,3-dimethyl-1-[4-(3-methyl-5-{[4-(1-methylethoxy)pyrimidin-2-yl]amino}phenyl)-1H-1,2,3-triazol-1-yl]butane-2,3-diol]",39.6
2,"Cc1cc(Nc2ncc(F)c(C(F)F)n2)cc(-c2cn(CC(C)(O)C(C)(C)O)nn2)c1 (stereo not drawn) [Example 21.15, 1-[4-(3-{[4-(difluoromethyl)-5-fluoropyrimidin-2-yl]amino}-5-methylphenyl)-1H-1,2,3-triazol-1-yl]-2,3-dimethylbutane-2,3-diol]",47.5
3,"COc1nc(Nc2cc(C)cc(-c3cn(CC(C)(O)C(C)(C)O)nn3)c2)ncc1Cl (stereo not drawn) [Example 21.16, 1-(4-{3-[(5-chloro-4-methoxypyrimidin-2-yl)amino]-5-methylphenyl}-1H-1,2,3-triazol-1-yl)-2,3-dimethylbutane-2,3-diol]",50.6
4,"Cc1cc(Nc2cc(C(C)F)ccn2)nc(-c2cn(CC(C)(O)C(C)(C)O)nn2)c1 (stereo not drawn) [Example 21.17, 1-[4-(6-{[4-(1-fluoroethyl)pyridin-2-yl]amino}-4-methylpyridin-2-yl)-1H-1,2,3-triazol-1-yl]-2,3-dimethylbutane-2,3-diol]",23.1
5,"Cc1cc(Nc2nccc(C(F)F)n2)cc(-c2cn(CC(C)(O)C(C)(C)O)nn2)c1 (stereo not drawn) [Example 21.18, 1-[4-(3-{[4-(difluoromethyl)pyrimidin-2-yl]amino}-5-methylphenyl)-1H-1,2,3-triazol-1-yl]-2,3-dimethylbutane-2,3-diol]",38.5
6,"Cc1cc(Nc2nccc(C(F)(F)F)n2)cc(-c2cn(CC(C)(O)C(C)(C)O)nn2)c1 (stereo not drawn) [Example 21.19, 2,3-dimethyl-1-[4-(3-methyl-5-{[4-(trifluoromethyl)pyrimidin-2-yl]amino}phenyl)-1H-1,2,3-triazol-1-yl]butane-2,3-diol]",29.3
7,"COc1nc(Nc2cc(C)cc(-c3cn(CC(C)(O)C(C)(C)O)nn3)c2)ncc1F (stereo not drawn) [Example 21.20, 1-(4-{3-[(5-fluoro-4-methoxypyrimidin-2-yl)amino]-5-methylphenyl}-1H-1,2,3-triazol-1-yl)-2,3-dimethylbutane-2,3-diol]",109
8,"Cc1cc(Nc2nccc(C)n2)cc(-c2cn(CC(C)(O)C(C)(C)O)nn2)c1 (stereo not drawn) [Example 21.21, 2,3-dimethyl-1-(4-{3-methyl-5-[(4-methylpyrimidin-2-yl)amino]phenyl}-1H-1,2,3-triazol-1-yl)butane-2,3-diol]",191
9,"Cc1cc(Nc2cc(C)c(F)cn2)nc(-c2cn(CC(C)(O)C(C)(C)O)nn2)c1 (stereo not drawn) [Example 21.22, 1-(4-{6-[(5-fluoro-4-methylpyridin-2-yl)amino]-4-methylpyridin-2-yl}-1H-1,2,3-triazol-1-yl)-2,3-dimethylbutane-2,3-diol]",85.8
10,"COc1ccnc(Nc2cc(C)cc(-c3cn(CC(C)(O)C(C)(C)O)nn3)c2)n1 (stereo not drawn) [Example 21.23, 1-(4-{3-[(4-methoxypyrimidin-2-yl)amino]-5-methylphenyl}-1H-1,2,3-triazol-1-yl)-2,3-dimethylbutane-2,3-diol]",27.9
11,"Cc1cc(Nc2cc(C)c(Cl)cn2)nc(-c2cn(CC(C)(O)C(C)(C)O)nn2)c1 (stereo not drawn) [Example 21.24, 1-(4-{6-[(5-chloro-4-methylpyridin-2-yl)amino]-4-methylpyridin-2-yl}-1H-1,2,3-triazol-1-yl)-2,3-dimethylbutane-2,3-diol]",31.9
12,"COc1nc(Nc2cc(C)cc(-c3cn(CC(C)(O)C(C)(C)O)nn3)c2)ncc1Cl (stereo not drawn) [Example 21.27, 1-(4-{3-[(5-chloro-4-methoxypyrimidin-2-yl)amino]-5-methylphenyl}-1H-1,2,3-triazol-1-yl)-2,3-dimethylbutane-2,3-diol]",41.5
13,"Cc1cc(Nc2cc(C)c(F)cn2)nc(-c2cn(CC(C)(O)C(C)(C)O)nn2)c1 (stereo not drawn) [Example 21.29, 1-(4-{6-[(5-fluoro-4-methylpyridin-2-yl)amino]-4-methylpyridin-2-yl}-1H-1,2,3-triazol-1-yl)-2,3-dimethylbutane-2,3-diol]",85.6
14,"Cc1cc(Nc2ncc(Cl)c(C)n2)cc(-c2cn(CC(C)(O)C(C)(C)O)nn2)c1 (stereo not drawn) [Example 21.30, 1-(4-{3-[(5-chloro-4-methylpyrimidin-2-yl)amino]-5-methylphenyl}-1H-1,2,3-triazol-1-yl)-2,3-dimethylbutane-2,3-diol]",88.5
15,"Cc1cc(Nc2nccc(OC(C)C)n2)cc(-c2cn(CC(C)(O)C(C)(C)O)nn2)c1 (stereo not drawn) [Example 21.31, 2,3-dimethyl-1-[4-(3-methyl-5-{[4-(1-methylethoxy)pyrimidin-2-yl]amino}phenyl)-1H-1,2,3-triazol-1-yl]butane-2,3-diol]",21.1
16,"Cc1cc(Nc2cc(C(C)F)ccn2)nc(-c2cn(CC(C)(O)C(C)(C)O)nn2)c1 (stereo not drawn) [Example 21.32, 1-[4-(6-{[4-(1-fluoroethyl)pyridin-2-yl]amino}-4-methylpyridin-2-yl)-1H-1,2,3-triazol-1-yl]-2,3-dimethylbutane-2,3-diol]",22.2
17,"COc1nc(Nc2cc(C)cc(-c3cn(CC(C)(O)C(C)(C)O)nn3)c2)ncc1F (stereo not drawn) [Example 21.33, 1-(4-{3-[(5-fluoro-4-methoxypyrimidin-2-yl)amino]-5-methylphenyl}-1H-1,2,3-triazol-1-yl)-2,3-dimethylbutane-2,3-diol]",66.3
18,"Cc1cc(Nc2nccc(C)n2)cc(-c2cn(CC(C)(O)C(C)(C)O)nn2)c1 (stereo not drawn) [Example 21.35, 2,3-dimethyl-1-(4-{3-methyl-5-[(4-methylpyrimidin-2-yl)amino]phenyl}-1H-1,2,3-triazol-1-yl)butane-2,3-diol]",83.9

# Now those with a lower IC50, led by results:
row,IC50 [nM],Structure (SMILES)
1,7.4,"Cc1cc(Nc2nccc(C3CC3)n2)cc(-c2cn(CC(C)(O)C(C)(C)O)nn2)c1 (stereo not drawn) [Example 21.14, 1-(4-{3-[(4-cyclopropylpyrimidin-2-yl)amino]-5-methylphenyl}-1H-1,2,3-triazol-1-yl)-2,3-dimethylbutane-2,3-diol]"
2,13.6,"Cc1cc(Nc2nccc(C(F)F)n2)cc(-c2cn(CC(C)(O)C(C)(C)O)nn2)c1 (stereo not drawn) [Example 21.25, 1-[4-(3-{[4-(difluoromethyl)pyrimidin-2-yl]amino}-5-methylphenyl)-1H-1,2,3-triazol-1-yl]-2,3-dimethylbutane-2,3-diol]"
3,12.7,"Cc1cc(Nc2nccc(C3CC3)n2)cc(-c2cn(CC(C)(O)C(C)(C)O)nn2)c1 (stereo not drawn) [Example 21.26, 1-(4-{3-[(4-cyclopropylpyrimidin-2-yl)amino]-5-methylphenyl}-1H-1,2,3-triazol-1-yl)-2,3-dimethylbutane-2,3-diol]"
4,13.2,"Cc1cc(Nc2nccc(C(F)(F)F)n2)cc(-c2cn(CC(C)(O)C(C)(C)O)nn2)c1 (stereo not drawn) [Example 21.28, 2,3-dimethyl-1-[4-(3-methyl-5-{[4-(trifluoromethyl)pyrimidin-2-yl]amino}phenyl)-1H-1,2,3-triazol-1-yl]butane-2,3-diol]"
5,18.2,"Cc1cc(Nc2ncc(F)c(C(F)F)n2)cc(-c2cn(CC(C)(O)C(C)(C)O)nn2)c1 (stereo not drawn) [Example 21.34, 1-[4-(3-{[4-(difluoromethyl)-5-fluoropyrimidin-2-yl]amino}-5-methylphenyl)-1H-1,2,3-triazol-1-yl]-2,3-dimethylbutane-2,3-diol]"
6,8.1,"Cc1cc(Nc2cc(C(F)F)ccn2)nc(-c2cn(CC(C)(O)C(C)(C)O)nn2)c1 (stereo not drawn) [Example 21.36, 1-[4-(6-{[4-(difluoromethyl)pyridin-2-yl]amino}-4-methylpyridin-2-yl)-1H-1,2,3-triazol-1-yl]-2,3-dimethylbutane-2,3-diol]"
7,1.9,"Cc1cc(Nc2cc(C(F)F)ccn2)nc(-c2cn(C3CCCC(O)C3O)nn2)c1 (stereo not drawn) [Example 21.37, 3-(4-(6-((4-(difluoromethyl)pyridin-2-yl)amino)-4-methylpyridin-2-yl)-1H-1,2,3-triazol-1-yl)cyclohexane-1,2-diol]"
8,3.7,"Cc1cc(Nc2cc(C(F)F)ccn2)nc(-c2cn(C3CCCC(O)C3O)nn2)c1 (stereo not drawn) [Example 21.38, 3-(4-(6-((4-(difluoromethyl)pyridin-2-yl)amino)-4-methylpyridin-2-yl)-1H-1,2,3-triazol-1-yl)cyclohexane-1,2-diol]"
9,1.8,"Cc1cc(Nc2cc(C(F)F)ccn2)nc(-c2cn(CC(C)(O)CO)nn2)c1 (stereo not drawn) [Example 21.39, 3-(4-(6-((4-(difluoromethyl)pyridin-2-yl)amino)-4-methylpyridin-2-yl)-1H-1,2,3-triazol-1-yl)-2-methylpropane-1,2-diol]"
10,5.9,"Cc1cc(Nc2cc(C(F)F)ccn2)nc(-c2cn(CC(C)(O)CO)nn2)c1 (stereo not drawn) [Example 21.40, 3-(4-(6-((4-(difluoromethyl)pyridin-2-yl)amino)-4-methylpyridin-2-yl)-1H-1,2,3-triazol-1-yl)-2-methylpropane-1,2-diol]"
11,6.8,"Cc1cc(Nc2ncc(F)c(C(F)F)n2)cc(-c2cn(Cc3ccc(O)nc3)nn2)c1 [Example 32, 5-((4-(3-((4-(difluoromethyl)-5-fluoropyrimidin-2-yl)amino)-5-methylphenyl)-1H-1,2,3-triazol-1-yl)methyl)pyridin-2-ol]"
12,3.7,"Cc1cc(Nc2nccc(C(F)F)n2)cc(-c2cn(Cc3ccc(=O)[nH]c3)nn2)c1 [Example 33, 5-((4-(3-((4-(Difluoromethyl)pyrimidin-2-yl)amino)-5-methylphenyl)-1H-1,2,3-triazol-1-yl)methyl)pyridin-2(3H)-one]"
